Results as given in patent US12233130B2, “Covalently-modified steroid acid-peptides having enhanced stability and/or biological activity” (DEFENCE THERAPEUTICS INC., priority 2022, dated 2025).
Positions of bridges follow the written chain, without caps; N, C: chain ends. Residues, ends and D or L forms follow the SMILES beside them. Chains are numbered I, II in the order given. *: point of attachment. Chenodeoxycholyl = C[C@H](CCC(=O)*)[C@H]1CC[C@H]2[C@@H]3[C@H](O)C[C@@H]4C[C@H](O)CC[C@]4(C)[C@H]3CC[C@]12C

Test system: JIMT-1 breast cancer cells
Assay: Cell cytotoxicity assay (PrestoBlue)
Format: cell-based
Method: 50 mg of CDCA-C-SV40 monomers (or other steroid acid-peptide monomers) were resuspended in 200-500 μL of DMSO. 10 eq of N,N-Diisopropylethylamine (DIPEA) was added to the mixture and incubated in a thermomixer at 37° C. with agitation (1000 rpm) overnight, enabling dimerization of the monomers via their N-terminal cysteine thiol groups to produce (CDCA-C-SV40)2 or other dimers. The samples were then analyzed by UPLC-MS to evaluate dimer formation efficiency. Cell toxicity was evaluated via a Cell Toxicity assay (PrestoBlue™).
In a T75 flask of confluent JIMT-1 cells (at least 75%), the culture medium was removed, and 2 mL of trypsin was then added and incubated at 37° C. for about 5 minutes or until the cells detached. The trypsin was inactivated by adding 10 mL of culture medium, the cells were centrifuged at 950 rpm for 5 minutes at 4° C., viable cells were visualized with trypan blue and counted using a hematocytometer. Cells were then plated in a 96-well plate at 5000 cells/well and incubated at 37° C. for 24 hours. Trastuzumab-(CDCA-C-SV40)2 or T-DM1-(CDCA-C-SV40)2 was then added to the cells and incubated for 72 hours at 37° C. […] Fluorescence (excitation: 535-560 nm, emission: 590-615 nm) was measured. The cells were further incubated for another 30 minutes, and a second fluorescence reading was taken.

CC(C)[C@H](NC(=O)[C@H](CCCCN)NC(=O)CNC(=O)[C@H](Cc1ccc(O)cc1)NC(=O)CNC(=O)[C@H](CO)NC(=O)[C@H](CSSC[C@H](NC(=O)CC[C@@H](C)[C@H]1CC[C@H]2[C@@H]3[C@H](O)C[C@@H]4C[C@H](O)CC[C@]4(C)[C@H]3CC[C@]12C)C(=O)N[C@@H](CO)C(=O)NCC(=O)N[C@@H](Cc1ccc(O)cc1)C(=O)NCC(=O)N[C@@H](CCCCN)C(=O)N[C@H](C(=O)N[C@@H](CO)C(=O)N[C@@H](CCCNC(=N)N)C(=O)N[C@@H](CCCNC(=N)N)C(=O)NCC(=O)NCC(=O)N[C@@H](Cc1c[nH]cn1)C(=O)N[C@@H](CCC(N)=O)C(=O)N[C@@H](CC(N)=O)C(=O)N[C@@H](CO)C(=O)N[C@@H](Cc1ccc(O)cc1)C(=O)N[C@@H](CCCCN)C(=O)N1CCC[C@H]1C(=O)N[C@@H](Cc1ccc(O)cc1)C(=O)O)C(C)C)NC(=O)CC[C@@H](C)[C@H]1CC[C@H]2[C@@H]3[C@H](O)C[C@@H]4C[C@H](O)CC[C@]4(C)[C@H]3CC[C@]12C)C(=O)N[C@@H](CO)C(=O)N[C@@H](CCCNC(=N)N)C(=O)N[C@@H](CCCNC(=N)N)C(=O)NCC(=O)NCC(=O)N[C@@H](Cc1c[nH]cn1)C(=O)N[C@@H](CCC(N)=O)C(=O)N[C@@H](CC(N)=O)C(=O)N[C@@H](CO)C(=O)N[C@@H](Cc1ccc(O)cc1)C(=O)N[C@@H](CCCCN)C(=O)N1CCC[C@H]1C(=O)N[C@@H](Cc1ccc(O)cc1)C(=O)O [(CDCA-C-hnRNP D NLS)2] (I: Chenodeoxycholyl-CSGYGKVSRRGGHQNSYKPY-OH / II: Chenodeoxycholyl-CSGYGKVSRRGGHQNSYKPY-OH; disulfide I:1-II:1)
cytotoxicity of dimerized version vs monomer: enhancement of cytotoxicity
